Test results taken from the supplement of paper PMC11451515.

System: SEM cells
Assay: cell viability relative to DMSO control; higher = less cytotoxic
Conditions: 48 h
Outline: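 Library compounds in DMSO were pin-dosed into 1536-well plates (5 μl) holding NOMO1 or SEM (500 cells/well) or P12-Ichikawa (1000 cells/well) leukemia cells, across an 11-point threefold series of 47 μM to 0.79 nM. Each cell line had been adapted for at least four passages in each medium. CellTiter-Glo One luminescence was read after 48 h at 37°C. Viability is the per-plate percentage relative to DMSO wells, with cell-free wells as background.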

[1] = HPLM + 10% dialyzed FBS, 0.000781 µM
[2] = HPLM + 10% dialyzed FBS, 0.00234 µM
[3] = HPLM + 10% dialyzed FBS, 0.00702 µM
[4] = HPLM + 10% dialyzed FBS, 0.0211 µM
[5] = HPLM + 10% dialyzed FBS, 0.0632 µM
[6] = HPLM + 10% dialyzed FBS, 0.19 µM
[7] = HPLM + 10% dialyzed FBS, 0.569 µM
[8] = HPLM + 10% dialyzed FBS, 1.71 µM
[9] = HPLM + 10% dialyzed FBS, 5.12 µM
[10] = HPLM + 10% dialyzed FBS, 15.4 µM
[11] = HPLM + 10% dialyzed FBS, 46.1 µM
[12] = RPMI 5 mM glucose + 10% FBS, 0.000781 µM
[13] = RPMI 5 mM glucose + 10% FBS, 0.00234 µM
[14] = RPMI 5 mM glucose + 10% FBS, 0.00702 µM
[15] = RPMI 5 mM glucose + 10% FBS, 0.0211 µM
[16] = RPMI 5 mM glucose + 10% FBS, 0.0632 µM
[17] = RPMI 5 mM glucose + 10% FBS, 0.19 µM
[18] = RPMI 5 mM glucose + 10% FBS, 0.569 µM
[19] = RPMI 5 mM glucose + 10% FBS, 1.71 µM
[20] = RPMI 5 mM glucose + 10% FBS, 5.12 µM
[21] = RPMI 5 mM glucose + 10% FBS, 15.4 µM
[22] = RPMI 5 mM glucose + 10% FBS, 46.1 µM
[23] = RPMI 5 mM glucose + 10% dialyzed FBS, 0.000781 µM
[24] = RPMI 5 mM glucose + 10% dialyzed FBS, 0.00234 µM
[25] = RPMI 5 mM glucose + 10% dialyzed FBS, 0.00702 µM
[26] = RPMI 5 mM glucose + 10% dialyzed FBS, 0.0211 µM
[27] = RPMI 5 mM glucose + 10% dialyzed FBS, 0.0632 µM
[28] = RPMI 5 mM glucose + 10% dialyzed FBS, 0.19 µM
[29] = RPMI 5 mM glucose + 10% dialyzed FBS, 0.569 µM
[30] = RPMI 5 mM glucose + 10% dialyzed FBS, 1.71 µM
[31] = RPMI 5 mM glucose + 10% dialyzed FBS, 5.12 µM
[32] = RPMI 5 mM glucose + 10% dialyzed FBS, 15.4 µM
[33] = RPMI 5 mM glucose + 10% dialyzed FBS, 46.1 µM

Structure (SMILES)	cell viability [1] [%]	cell viability [2] [%]	cell viability [3] [%]	cell viability [4] [%]	cell viability [5] [%]	cell viability [6] [%]	cell viability [7] [%]	cell viability [8] [%]	cell viability [9] [%]	cell viability [10] [%]	cell viability [11] [%]	cell viability [12] [%]	cell viability [13] [%]	cell viability [14] [%]	cell viability [15] [%]	cell viability [16] [%]	cell viability [17] [%]	cell viability [18] [%]	cell viability [19] [%]	cell viability [20] [%]	cell viability [21] [%]	cell viability [22] [%]	cell viability [23] [%]	cell viability [24] [%]	cell viability [25] [%]	cell viability [26] [%]	cell viability [27] [%]	cell viability [28] [%]	cell viability [29] [%]	cell viability [30] [%]	cell viability [31] [%]	cell viability [32] [%]	cell viability [33] [%]
Cc1nc(Nc2ncc(C(=O)Nc3c(C)cccc3Cl)s2)cc(N2CCN(CCO)CC2)n1	88.1	106	93.3	98.3	91.7	92	80.2	81.9	54.9	34.9	29.9	66.6	68.9	64.9	78.4	68.2	66.1	74.7	69.9	60.1	17.5	14.8	100	102	106	99.6	104	99.9	88.3	79.2	50.3	26.4	25.2
Cc1c[nH]c(/C=C2\C(=O)Nc3ccccc32)c1CCC(=O)O	102	107	112	103	89.8	90.1	69.7	51.6	42.6	26.7	39	61.2	83.1	83.6	64.7	72.7	49.3	50.6	34.1	27.6	28.1	26.6	107	105	99.6	94.7	90.8	75.8	67.6	47.1	33.6	25.7	46.5
CN1CCCN(C(=O)c2cccc(-c3ccc(/C=C4/C(=O)Nc5ccc(Cl)cc54)o3)c2)CC1	98.9	106	109	101	118	107	84.1	71.7	48.4	22.8	2.97	90.2	117	106	119	127	112	77.2	48	16.7	5.69	3.36	110	108	115	106	114	115	75.7	62.9	20.4	5.5	3.68
COc1cc2nccc(Oc3ccc(NC(=O)Nc4cc(C)on4)c(Cl)c3)c2cc1OC	112	116	107	107	114	102	100	71.2	64.1	59.9	33.1	86.4	85.2	79.9	74.3	82.1	72.5	73.9	49.6	33	31.3	14.1	112	125	123	107	108	115	112	71.5	61.3	43	20.1
O=C(Cc1cccc(OC(F)(F)F)c1)Nc1ccc(CCCCc2nnc(NC(=O)Cc3ccccn3)s2)nn1	122	107	119	112	107	89	86.7	87.4	79.5	72	65.1	–	–	–	–	–	–	–	–	–	–	–	141	116	108	91.8	78.8	70.3	70.6	60.2	56.7	50.7	46
NC1CCC(N[C@@H]2C[C@H]2c2ccccc2)CC1 (stereo not given in full)	75.5	90	87.5	87.5	92.9	92.8	93.7	76.4	83.2	82.3	81.5	120	126	114	115	119	124	146	106	111	105	98.9	84.2	98.5	99.8	96.7	98	96.3	106	81.9	92.4	81.4	74
CO[C@H]1C[C@@H]2CC[C@@H](C)[C@@](O)(O2)C(=O)C(=O)N2CCCC[C@H]2C(=O)O[C@H]([C@H](C)C[C@@H]2CC[C@@H](OP(C)(C)=O)[C@H](OC)C2)CC(=O)[C@H](C)/C=C(\C)[C@@H](O)[C@@H](OC)C(=O)[C@H](C)C[C@H](C)/C=C/C=C/C=C/1C	91	97.7	99.9	98.8	81.7	40.8	80.2	81.9	75.4	71.1	64.1	87.7	96	105	76.7	80.9	42.9	85.8	78.8	63.7	66.6	52.9	105	98.1	108	108	92.3	40.3	85.7	86.9	71.9	68.2	57.1
